Assay results as given in US20250327032A1, “AGENT FOR AVOIDING IMMUNE RESPONSE OF TRANSGENIC CELLS” (HYPERION DRUG DISCOVERY CO., LTD., priority 2021, published 2025).

Legend:
Format in all cases: cell-based
[1] = test system: human mesenchymal stem cells; assay: Introduction of GFP mRNA with PEIMAX and other NFκB nuclear translocation inhibitors (Example 13), cell yield; details: GFP mRNA 10 pg/cell, PEIMAX
Procedure: Improvement in the yield of transgenic cells was investigated when using the NFκB nuclear translocation inhibitor of the present invention other than JSH-23 and calcitriol. Introduction of genes was performed using vitamin B6, vitamin C, vitamin E, and rolipram as an NFκB nuclear translocation inhibitor other than JSH-23 and calcitriol. The specific procedure is as follows.
Human mesenchymal stem cells were seeded in a 6-well plate to be about 10,000 cells/cm^2. As a culture solution, a basal medium supplemented with vitamin B6 and vitamin E at 2 μM and 10 μM, vitamin C at 20 μM and 100 μM, and rolipram at 10 μM was used. As a control, the basal medium for each cell supplemented with 0.1% (v/v) DMSO instead of each compound was used as a culture solution.
A lipofection solution was prepared by adding PEIMAX and fluorescent protein GFP mRNA to OptiMEM. It was prepared so that the amount of mRNA was 10 pg/cell. […]
Twenty-four hours after the final introduction of genes, the cells were detached with a cell detachment solution, centrifuged at 600×g for 5 minutes using a centrifuge, to collect the cells. In addition, the collected cells were counted using a hemocytometer. Furthermore, the GFP-positive percentage of the collected cells was measured using a flow cytometer. The yield of the number of GFP-positive cells was calculated from the number of cells counted and the GFP-positive percentage.

[2] = test system: human mesenchymal stem cells; assay: Introduction of GFP mRNA by lipofection, yield of GFP-positive cells; details: calcitriol 1 μM; GFP mRNA containing pseudouridine instead of uridine, 10 pg/cell
Procedure: (§1) Human mesenchymal stem cells were seeded in a 6-well plate to be about 10,000 cells/cm^2. Human myoblasts were seeded in another 6-well plate to be about 20,000 cells/cm^2. As a culture solution, a basal medium for each cell supplemented with 0.1, 1, or 10 μM of JSH-23 was used. As a control, a basal medium for each cell supplemented with 0.1% (v/v) DMSO instead of JSH-23 was used as a culture solution.
(§2) A lipofection solution was prepared by adding Lipofectamine RNAiMAX and fluorescent protein GFP mRNA to OptiMEM. As the GFP mRNA, that containing uridine or that containing pseudouridine instead of uridine was used. In addition, for those containing pseudouridine, a basal medium for each cell supplemented with 1 μM of JSH-23 was used, and as a control, a basal medium for each cell supplemented with 0.1% (v/v) DMSO instead of JSH-23 was used as a culture solution. It was prepared so that the amount of mRNA was 10 pg/cell for human mesenchymal stem cells and 5 pg/cell for human myoblasts. The prepared lipofection solution was mixed well according to the manufacturer's recommended protocol and allowed to stand at room temperature for about 15 minutes.
(§3) Next, each lipofection solution was added to the plate seeded with human mesenchymal stem cells or human myoblasts, and cultured in a CO2 incubator at 37° C. for about 1 day (18 hours) (human mesenchymal stem cells) or for 2 days (42 hours) (human myoblasts). After culturing, all the culture solution comprising the lipofection solution was removed and replaced with a new culture solution having the same composition as before the addition of the lipofection solution.
(§4) After another 6 hours, the above lipofection solution was newly prepared, added again to the plate seeded with human mesenchymal stem cells or human myoblasts, and cultured in a CO2 incubator at 37° C. for about 1 day (18 hours) (mesenchymal stem cells) or about 2 days (42 hours) (human myoblasts). These steps were repeated so that the introduction of genes was performed a total of 4 times.
(§5) Twenty-four hours after the final introduction of genes, the cells were detached with a cell detachment solution, centrifuged at 600×g for 5 minutes using a centrifuge, to collect the cells. The collected cells were counted using a hemocytometer. Furthermore, the GFP-positive percentage of the collected cells was measured using a flow cytometer. The yield of the number of GFP-positive cells was calculated from the number of cells counted and the GFP-positive rate.
(§6) Human mesenchymal stem cells were seeded in a 6-well plate to be about 10,000 cells/cm^2. Human myoblasts were seeded in another 6-well plate to be about 20,000 cells/cm^2. As a culture solution, a basal medium for each cell supplemented with 1 μM of calcitriol was used. As a control, a basal medium for each cell supplemented with 0.1% (v/v) DMSO instead of calcitriol was used as a culture solution.
(§7) A lipofection solution was prepared by adding Lipofectamine RNAiMAX and fluorescent protein GFP mRNA to OptiMEM. As the GFP mRNA, that containing uridine, or that containing pseudouridine instead of uridine was used. It was prepared so that the amount of mRNA was 10 pg/cell for human mesenchymal stem cells and 5 pg/cell for human myoblasts. The prepared lipofection solution was mixed well according to the manufacturer's recommended protocol and allowed to stand at room temperature for about 15 minutes.

[3] = test system: human myoblasts; assay: as above; details: calcitriol 1 μM
Procedure: as §1, §2, §3, §4, §5, §6, §7

[4] = test system: human myoblasts; assay: Introduction of GFP viral vector (polybrene method), yield of GFP-positive cells; details: calcitriol 1 μM; viral vector MOI 0.1, 5 or 10, polybrene 0, 5 or 10 μg/mL; depending on the transduction conditions
Procedure: Human mesenchymal stem cells were seeded in a 6-well plate to be about 2,000 cells/cm^2. Human myoblasts were seeded in another 6-well plate to be about 2,000 cells/cm^2. As a culture solution, a basal medium for each cell supplemented with JSH-23 was used. JSH-23 was added at 1 μM to the culture solution used for human mesenchymal stem cells, and at 0.1 μM to the culture solution used for human myoblasts. As a control, a basal medium, i.e., αMEM (+10% serum) for human mesenchymal stem cells and MCDB131 (+10% serum) for human myoblasts, to which 0.1% (v/v) DMSO instead of JSH-23 was added was used as a culture solution.
A mixed solution was prepared by mixing GFP viral vector and a polybrene solution. […]
Next, the above mixed solution was added to the plate seeded with human mesenchymal stem cells or human myoblasts, and cultured in a CO2 incubator at 37° C. for 24 hours.
Four days after the addition of the virus-free culture solution, the cells were detached with a cell detachment solution and centrifuged at 600×g for 5 minutes using a centrifuge, to collect the cells. The collected cells were counted using a hemocytometer. Furthermore, the GFP-positive percentage of the collected cells was measured using a flow cytometer. The yield of the number of GFP-positive cells was calculated from the number of cells counted and the GFP-positive percentage. […]

Q: For `Cc1ncc(CO)c(CO)c1O.Cl` [vitamin B6], which “number of viable cells after introduction of genes relative to control (set to 1)” value ([1]; compound at 2 μM and 10 μM) is on record?
A: about 1.2 times

Q: With `COc1ccc(C2CNC(=O)C2)cc1OC1CCCC1` (stereo not shown) [rolipram] as the compound, how does the “number of viable cells after introduction of genes relative to control (set to 1)” value ([1]; compound at 10 μM) read?
A: about 1.3 times

Q: With `C=C1/C(=C\C=C2/CCC[C@]3(C)[C@@H]([C@H](C)CCCC(C)(C)O)CC[C@@H]23)C[C@@H](O)C[C@@H]1O` [calcitriol] as the compound, how does the “yield of GFP-positive cells compared to the control (control set to 1)” value [2] read?
A: ≥ 2.7 times

Q: What about the “yield of GFP-positive cells compared to the control (control set to 1)” value ([3]; GFP mRNA containing pseudouridine instead of uridine, 5 pg/cell) of the same compound?
A: ≥ 4 times

Q: What about the “yield of GFP-positive cells compared to the control (control set to 1)” value ([3]; GFP mRNA containing uridine, 5 pg/cell, second statement of b89) of the same compound?
A: ≥ 5 times

Q: What about the “yield of GFP-positive cells compared to the control (control set to 1)” value ([3]; GFP mRNA containing uridine, first statement of b89, printed as human myoblasts) of the same compound?
A: ≥ 7 times

Q: What about the “increase of the number of GFP-positive cells by adding calcitriol” value [4] of the same compound?
A: about 4.5 times
